Results taken from paper PMC12505664, “Enflicoxib for the long-term management of canine osteoarthritis—External validation of a population pharmacokinetic model in dogs with osteoarthritis” (Frontiers in Veterinary Science, 2025).
Read-outs that look alike come from different tables or passages of the source. Each block holds one molecule with its values, some of them ahead of it.

Tests used:
canine osteoarthritis = test system: canine osteoarthritis; set-up: method as in Salichs et al., Vet Rec. 2022; conditions: Mavacoxib group n=58, ref Salichs et al., Vet Rec. 2022, cited from earlier work
[1] = Maximum a posteriori Bayesian (MAPB) estimation of individual PK parameters in dogs with OA; type: in vivo
Description: As a similar PK behavior between populations was concluded, the same popPK model could be used, and a Bayesian approach was used for the determination of individual enflicoxib and the pyrazol metabolite exposure in osteoarthritic animals.
A maximum a posteriori Bayesian (MAPB) estimation using the post hoc subroutine in NONMEM was used to provide the individual PK parameters in osteoarthritic dogs.
MAPB estimation applied likelihood maximization in the form of minimizing the objective function (minus 2 log likelihood), to estimate individual PK parameters of each dog with OA. In this analysis, the MAPB estimation incorporated both a priori PK information, that is, the established PK model of enflicoxib and the pyrazol metabolite in healthy Beagle dogs, and a posteriori PK data, which corresponds to PK data from osteoarthritic dogs. The individual PK parameters along with individual predicted PK profiles for each dog treated with enflicoxib were calculated by fitting the animal PK dataset, which includes dosing, sampling times, parent and metabolite levels, and covariate information, to the established population enflicoxib and the pyrazol metabolite PK model in healthy Beagle dogs.
The maximum a posteriori Bayesian (MAPB) estimation was applied to provide the most likely individual PK profile for each dog with OA, using the “POSTHOC” subroutine and $ESTIMATION command set to MAXEVAL=0 in NONMEM.
Individual PK parameters and individual PK profiles of enflicoxib and the pyrazol metabolite were estimated for each dog.
Finally, the Bayesian approach enabled the estimation of the main individual PK parameters of enflicoxib and the pyrazol metabolite. Using these individual PK parameters, predicted profiles for each animal were estimated, allowing the calculation of the derived exposure parameters, such as Cmax, Cmin, AUCτ, and T1/2 in all treated dogs. The distribution and the mean estimates of enflicoxib and the pyrazol metabolite PK parameters at selected time points are depicted in Supplementary Figures S3, S4, respectively.

[2] = overdose study, repeated weekly administrations, Beagle dogs; cited from earlier work
[3] = Plasma levels of enflicoxib and pyrazol metabolite in the 6-month field clinical study (HPLC-MS/MS); type: in vivo, client-owned dogs with OA; conditions: for Mean plasma level: oral 8 mg/kg then 4 mg/kg weekly
Description: A prospective, multisite, blinded, randomized, placebo-controlled, parallel-group field study was performed in accordance with Good Clinical Practice standards ([16]). The study aimed to confirm the safety and efficacy of enflicoxib treatment of pain and inflammation associated with naturally occurring canine OA in dogs of any breed and sex treated for 6 months. The protocol was approved by the regulatory authorities of both Portugal and Hungary. Written informed consent was obtained from all dog owners prior to enrolment of their dogs. Dogs remained under the care of their owners at home throughout the study.
Before enrolment, all dogs underwent a physical examination, and blood and urine samples were taken. After enrollment, dogs were randomized in a predefined enflicoxib:placebo ratio of 3:1. Enflicoxib was dosed orally at weekly intervals, with an initial dose of 8 mg/kg, followed by once-a-week maintenance doses of 4 mg/kg for a total of 26 weeks. Dogs in the enflicoxib group received Daxocox® tablets (Ecuphar/Animalcare group), while dogs in the placebo group received the same formulation without the active ingredient under the same posology (number of tablets and dosing interval). […] No positive control was included due to difficulties in maintaining blinding with products under different posology during the entire follow-up period.
Two blood samples for popPK analysis were collected from all animals enrolled in the study one on day 44(±2 days)/1.5 months, (similar to the last sample taken in the previous clinical studies), after clinical assessment of pain and lameness and prior to treatment administration and another one at the end of the study on day 189/6 months (±2 days), or individual premature study termination day. Day 189 corresponds to the trough concentration after the 27th weekly administration (PK sample taken at the end of the weekly dosing interval). Meanwhile, day 44 corresponds to a PK sample obtained 2 days after the 7th weekly administration. The veterinary practices had the necessary resources and adequate freezing equipment for the long-term storage of plasma samples. Blood samples were collected into potassium-3-ethylenediaminetetraacetic acid (K3EDTA) labeled tubes, which were immediately centrifuged at ~2,500g for 10 min (at +4 °C whenever possible) to obtain plasma. Once received, plasma was transferred into two labeled propylene tubes (aliquots 1 and 2). Each plasma aliquot was stored frozen at a nominal temperature of −20 (±2) °C until shipment to the Laboratory of analysis Welab Barcelona (Parc Científic de Barcelona, C/Baldiri Reixac 4-12, 08028, Barcelona). The maximum storage time for the samples was 376 days at nominally −20 °C/−80 °C. Considering the long-term stability of enflicoxib and its metabolite in dog plasma samples stored at −20 °C, which spans a minimum of 402 days, the stability of the study samples was guaranteed for the entire duration of the study. Samples were analyzed without information on the treatment allocation (laboratory-blinded study).
Enflicoxib and pyrazol metabolite plasma levels were measured by a previously fully validated high-performance liquid chromatography (HPLC)-method coupled with tandem mass spectrometry (MS/MS) detection as described in Homedes et al. ([4]).

[4] = set-up: method as in PMID 34160092; conditions: Beagle dogs, oral enflicoxib; cited from earlier work
[5] = set-up: method as in PMID 34160092; conditions: previously validated method, cited from earlier work
[6] = set-up: method as in PMID 34854245; conditions: popPK model, cited from earlier work
[7] = weeks 12–26, Bayesian predicted profiles
[8] = metabolite, typical value at 9.9 kg

Structure (SMILES): NS(=O)(=O)c1ccc(-n2nc(C(F)(F)F)cc2-c2ccc(F)cc2)cc1 [Mavacoxib]
Number of animals presenting AEs (%): Emesis or nausea (canine osteoarthritis; AEs classified A, B or O): 4 (6.9) | Emesis and nausea: Number of events (canine osteoarthritis; AEs related to the GI system): 6 | Diarrhoea / pasty stools: Duration range (canine osteoarthritis): 1 to 4 days | Diarrhoea / pasty stools: Mean duration (canine osteoarthritis): 2 days | Diarrhoea / pasty stools: Number of events (canine osteoarthritis): 3 | Diarrhoea / pasty stools: Treatment needed (canine osteoarthritis): 0 | Emesis and nausea: Mean duration (canine osteoarthritis): 4.2 days | Emesis and nausea: Treatment needed (canine osteoarthritis): 2 | Number of animals presenting AEs (%): Abdominal pain (canine osteoarthritis): 0 | Number of animals presenting AEs (%): Acute renal failure (canine osteoarthritis): 1 (1.7) | Number of animals presenting AEs (%): Apathy (canine osteoarthritis): 0 | Number of animals presenting AEs (%): Constipation (canine osteoarthritis): 1 (1.7) | Number of animals presenting AEs (%): Diarrhoea or pasty stools (canine osteoarthritis): 3 (5.2) | Number of animals presenting AEs (%): Increased salivation (canine osteoarthritis): 0 | Number of animals presenting AEs (%): Polydipsia (canine osteoarthritis): 0 | Number of animals presenting AEs (%): Total (canine osteoarthritis): 6 (10.3) | Number of animals presenting AEs (%): Weight loss (canine osteoarthritis): 0 | Emesis and nausea: Duration range (canine osteoarthritis; upper end one animal): 1 to 14 days

Time to PK steady-state ([1]; weekly treatment): 10–12 weeks | AUCτ [1, 7]: 16,742 ng/ml·day | Cmax [1, 7]: ~ 2,490 ng/mL | Cmin [1, 7]: 2,243 ng/mL | Mean plasma level ([3]; day 44 (2 days after 7th weekly administration), N=75): 2,105.6 ng/mL | Max plasma level ([3]; day 44, N=75): 4,728.5 ng/mL | Min plasma level ([3]; day 44, N=75): 2.5 ng/mL | Probability (%) concentration < 10 ng/mL ([3]; day 44, N=75): 4.0% | Probability (%) concentration < LOQ ([3]; day 44, N=75): 4.0% | Probability (%) concentration < 10 ng/mL ([3]; day 44, N=75, listed as pyrazol metabolite): 4% | Mean plasma level ([3]; day 93 (premature study termination), N=2): 3,928.8 ng/mL | Max plasma level ([3]; day 93, N=2): 5,029.0 ng/mL | Min plasma level ([3]; day 93, N=2): 2,828.5 ng/mL | Probability (%) concentration < 10 ng/mL ([3]; day 93, N=2): 0.0% | Probability (%) concentration < LOQ ([3]; day 93, N=2): 0.0% | Mean plasma level ([3]; day 189 (trough after 27th weekly administration), N=65): 2,317.4 ng/mL | Max plasma level ([3]; day 189, N=65): 7,541.8 ng/mL | Min plasma level ([3]; day 189, N=65): 2.5 ng/mL | Probability (%) concentration < 10 ng/mL ([3]; day 189, N=65): 4.6% | Probability (%) concentration < LOQ ([3]; day 189, N=65): 1.5% | Probability (%) concentration < 10 ng/mL ([3]; day 189, N=65, listed as pyrazol metabolite): 5%
Structure (SMILES): NS(=O)(=O)c1ccc(-n2nc(C(F)(F)F)cc2-c2ccc(F)cc2F)cc1 [Pyrazol metabolite]
Time-dependent pharmacokinetics or over-accumulation ([1]; 6 months of weekly treatment): no evidence of time-dependent pharmacokinetics or over-accumulation | Dose proportionality of pharmacokinetics [2]: dose-proportional pharmacokinetics | mean terminal elimination half-life (t 1/2) [4]: 17 days | Stability in dog plasma ([5]; following 4 freeze–thaw cycles): stable | Stability in dog plasma ([5]; nominally −20 °C for 402 days): stable | Stability in dog plasma ([5]; room temperature for 4 h): stable | Long-term stability in dog plasma samples ([5]; stored at −20 °C): ≥ 402 days | IIV of CLM/F (apparent clearance) ([6]; interindividual variability as % CV): 31% | Residual variability ([6]; log error model, % CV): 20% | CLM/F = θ7·(WGT/9.9)^0.75, θ7 estimate (apparent clearance) [6, 8]: 0.111 L/h | VM/F = θ4·(WGT/9.9)^1.0, θ4 estimate (apparent volume of distribution, central compartment) [6, 8]: 6.59 L
